Data: patent US20100305124A1, “Acylated Aminopyridine and Aminopyridazine Insecticides” (BAYER CROPSCIENCE AG, priority 2009, published 2010)

Test system: green peach aphid (Myzus persicae)
Test: Myzus test (MYZUPE), sprayed aubergine plants
Type: in vivo
Conditions: application rate of 100 ppm, spray on aubergine plants, read-out: effect in % (aphids killed)
Description: Solvent: 3 parts by weight of dimethylformamide Emulsifier: 1 part by weight of polyoxyethylenealkyl phenyl ether
An appropriate preparation of active ingredient is prepared by mixing 1 part by weight of active ingredient with the stated amount of solvent and emulsifier and diluting the concentrate with water to the desired concentration.
Aubergine plants (Solanum melongena) infested by all stages of the green peach aphid (Myzus persicae) are sprayed with a preparation of active ingredient at the desired concentration.
After the desired time, the effect in % is determined; here, 100% means that all of the aphids have been killed. Conversely, 0% means that no aphids have been killed.

With Cc1c(C(=O)Nc2cccnc2)cnn1-c1ncccc1Cl [I-1] as the molecule, how does the pest or weed control at 100 ppm read?
The pest or weed control at 100 ppm was at least 80%.

For Cc1cncc(C(=O)Nc2cccnc2)c1 [I-10], which pest or weed control at 100 ppm is on record?
The pest or weed control at 100 ppm was at least 80%.

Same assay, conditions: application rate of 500 ppm, spray on aubergine plants, read-out: effect in % (aphids killed)

Which pest or weed control at 500 ppm does the source give for O=C(Nc1cccnc1)c1ccc(Cn2nc(C(F)(F)F)nc2C(F)(F)F)cc1 [I-5] here?
The pest or weed control at 500 ppm was at least 80%.

For O=C(Nc1cccnc1)c1ccc(Cn2nc(C(F)(F)F)nc2C(F)(F)F)nc1 [I-6], which pest or weed control at 500 ppm is on record?
Its pest or weed control at 500 ppm is at least 80%.

O=C(Nc1cccnc1)c1ccc(Cn2cnc(C(F)(F)F)n2)cc1 [I-8] was tested. Which pest or weed control at 500 ppm did it give?
The pest or weed control at 500 ppm was at least 80%.

Which pest or weed control at 500 ppm does the source give for O=C(Nc1cccnc1)c1ccc(Cn2nc(C(F)(F)F)cc2C(F)(F)F)nc1 [I-9] here?
The pest or weed control at 500 ppm was at least 80%.

For CN(C(=O)c1cccc(Cn2cnc(C(F)(F)F)n2)c1)c1cccnc1 [I-12], which pest or weed control at 500 ppm is on record?
Its pest or weed control at 500 ppm is at least 80%.

How did the pest or weed control at 500 ppm turn out when CN(C(=O)c1cccc(Cn2nc(C(F)(F)F)cc2C(F)(F)F)c1)c1cccnc1 [I-13] was run?
Its pest or weed control at 500 ppm is at least 80%.

For CN(C(=O)c1cccc(COc2ccc(C(F)(F)F)cc2)c1)c1cccnc1 [I-14], which pest or weed control at 500 ppm is on record?
Its pest or weed control at 500 ppm is at least 80%.

For CN(C(=O)c1cccc(Cn2cncn2)c1)c1cccnc1 [I-15], which pest or weed control at 500 ppm is on record?
Its pest or weed control at 500 ppm is at least 80%.

For CSCc1cccc(C(=O)Nc2cccnc2)c1 [I-16], which pest or weed control at 500 ppm is on record?
The pest or weed control at 500 ppm was at least 80%.

With O=C(Nc1cccnc1)c1ccc(Cn2cnc(C(F)(F)C(F)(F)F)n2)cc1 [I-17] as the molecule, how does the pest or weed control at 500 ppm read?
The pest or weed control at 500 ppm was at least 80%.

How did the pest or weed control at 500 ppm turn out when O=C(Nc1cccnc1)c1ccc(Cn2nc(C(F)(F)F)nc2C(F)(F)F)c(Cl)c1 [I-18] was run?
Its pest or weed control at 500 ppm is at least 80%.

With O=C(Nc1cccnc1)c1ccc(Cn2cc(Br)c(C(F)(F)F)n2)cc1 [I-20] as the molecule, how does the pest or weed control at 500 ppm read?
The pest or weed control at 500 ppm was at least 80%.

With CN(C(=O)c1ccc([N+](=O)[O-])cc1)c1cccnc1 [I-21] as the molecule, how does the pest or weed control at 500 ppm read?
The pest or weed control at 500 ppm was at least 80%.

CN(C(=O)c1ccc(Cn2cncn2)cc1)c1cccnc1 [I-22] was tested. Which pest or weed control at 500 ppm did it give?
The pest or weed control at 500 ppm was at least 80%.

For CN(C(=O)c1ccc(Cn2cccn2)cc1)c1cccnc1 [I-23], which pest or weed control at 500 ppm is on record?
Its pest or weed control at 500 ppm is at least 80%.

For CN(C(=O)c1ccc(Cn2cnc(C(F)(F)F)n2)cc1)c1cccnc1 [I-25], which pest or weed control at 500 ppm is on record?
The pest or weed control at 500 ppm was at least 80%.

Which pest or weed control at 500 ppm does the source give for CN(C(=O)c1ccc(Cn2nc(C(F)(F)F)nc2C(F)(F)F)cc1)c1cccnc1 [I-26] here?
Its pest or weed control at 500 ppm is at least 80%.

With CN(C(=O)c1ccc(Cn2ccc(C(F)(F)F)n2)cc1)c1cccnc1 [I-27, N-Methyl-N-(pyridin-3-yl)-4-{[3-(trifluoromethyl)-1H-pyrazol-1-yl]methyl}benzenecarboxamide] as the molecule, how does the pest or weed control at 500 ppm read?
The pest or weed control at 500 ppm was at least 80%.

With O=C(Nc1cccnc1)c1ccc(Cn2ccc(C(F)(F)F)n2)nc1 [I-28] as the molecule, how does the pest or weed control at 500 ppm read?
Its pest or weed control at 500 ppm is at least 80%.

How did the pest or weed control at 500 ppm turn out when CSCc1ccc(C(=O)Nc2cccnc2)cc1 [I-32] was run?
The pest or weed control at 500 ppm was at least 80%.

CCSCc1ccc(C(=O)Nc2cccnc2)cc1 [I-33] was tested. Which pest or weed control at 500 ppm did it give?
The pest or weed control at 500 ppm was at least 80%.

For CC(C)SCc1ccc(C(=O)Nc2cccnc2)cc1 [I-34], which pest or weed control at 500 ppm is on record?
Its pest or weed control at 500 ppm is at least 80%.

How did the pest or weed control at 500 ppm turn out when O=C(Nc1cccnc1)c1ccc(CSC(F)F)cc1 [I-35] was run?
Its pest or weed control at 500 ppm is at least 80%.

How did the pest or weed control at 500 ppm turn out when CSc1ccc(C(=O)Nc2cccnc2)cc1 [I-36] was run?
The pest or weed control at 500 ppm was at least 80%.

For O=C(Nc1cccnc1)c1ccc(SC(F)(F)F)cc1 [I-37], which pest or weed control at 500 ppm is on record?
Its pest or weed control at 500 ppm is at least 80%.

How did the pest or weed control at 500 ppm turn out when Cc1ccc(C(=O)Nc2cccnc2)cn1 [I-38] was run?
The pest or weed control at 500 ppm was at least 80%.

With CCCSCc1ccc(C(=O)Nc2cccnc2)cc1 [I-39] as the molecule, how does the pest or weed control at 500 ppm read?
The pest or weed control at 500 ppm was at least 80%.

Which pest or weed control at 500 ppm does the source give for CCCCSCc1ccc(C(=O)Nc2cccnc2)cc1 [I-40] here?
The pest or weed control at 500 ppm was at least 80%.

With CN(C)C(=O)c1ccc(C(=O)Nc2cccnc2)cc1 [I-41] as the molecule, how does the pest or weed control at 500 ppm read?
Its pest or weed control at 500 ppm is at least 80%.

With O=C(Nc1cccnc1)c1ccc(C(=O)N2CCCC2)cc1 [I-42] as the molecule, how does the pest or weed control at 500 ppm read?
Its pest or weed control at 500 ppm is at least 80%.

Which pest or weed control at 500 ppm does the source give for Cc1ccc(C(=O)N(C)c2cccnc2)cn1 [I-43] here?
Its pest or weed control at 500 ppm is at least 80%.

Same assay, conditions: read-out: effect in % (aphids killed)

For O=C(Nc1cccnc1)c1ccc(C(F)(F)C(F)(F)C(F)(F)F)cc1 [I-29], which pest or weed control at 500 ppm is on record?
The pest or weed control at 500 ppm was at least 80%.

Which pest or weed control at 500 ppm does the source give for O=C(Nc1cccnc1)c1ccc(C(F)(F)C(F)(F)C(F)(F)F)nc1 [I-30] here?
Its pest or weed control at 500 ppm is at least 80%.

For CN(C(=O)c1ccc(C(F)(F)C(F)(F)C(F)(F)F)cc1)c1cccnc1 [I-47], which pest or weed control at 500 ppm is on record?
Its pest or weed control at 500 ppm is at least 80%.

CN(C(=O)c1ccc(C(F)(F)C(F)(F)C(F)(F)F)nc1)c1cccnc1 [I-48] was tested. Which pest or weed control at 500 ppm did it give?
The pest or weed control at 500 ppm was at least 80%.
